Values of other authors in US7853626B2, “Computational systems for biomedical data” (The Invention Science Fund I, LLC, priority 2006, dated 2010).
Read-outs that look alike come from different tables or passages of the source.

Experiments:
[1] = tested on: hyperthyroidism; settings: groups not comparable at baseline (surgery group younger, in better health)

SMILES	subset efficacy (members of the identified subpopulation (low methylmalonic acid / homocysteine))	odds ratio of developing severe toxicity (overall study population)	odds ratio of developing severe toxicity (subpopulation with total homocysteine levels of less than 7.5 μmol/l)	frequency of illness and death compared with surgery [1]
Nc1nc2[nH]cc(CCc3ccc(C(=O)N[C@@H](CCC(=O)O)C(=O)O)cc3)c2c(=O)[nH]1 [pemetrexed]	maintained or improved efficacy	1	0.7	–
[131IH] [iodine-131]	–	–	–	much higher frequency of illness and death
